# According to patent EP3501540A1, “MITOCHONDRIAL TRIFUNCTIONAL PROTEIN (MTP) INHIBITORS FOR USE IN THE TREATMENT OF HIGH MITOCHONDRIAL RESPIRATION (OX+) CANCERS” (UNIVERSITE DE BORDEAUX, priority 2017, dated 2019):
# Columns and labels:
# HADHA = HADHA expression in cells; type: cell-based, human; conditions: A549 cells; LiCl 20 mM
# Description: Cells pellet were lysed in a buffer containing RIPA IX (Sigma-Aldrich) and protease inhibitors cocktail (chymostatin, leupeptin, antipain, pepstatin A - Sigma-Aldrich). Protein lysates were placed on ice for 15 min, vortexed and cleared by centrifugation at 12,000 × g for 15 min at 4 °C. The supernatants were retrieved and frozen at -80 °C until use. Protein concentration was performed using the Pierce™ BCA Protein Assay Kit.
# Samples (20ug) were dissolved in Laemmli buffer (Bio-Rad) containing 2% mercaptoethanol by incubation for 15 min at 65°C and separated on a 4-15% SDS-polyacrylamide gradient TGX STAIN FREE mini-gel (Biorad). The gels are activated by UV with chemidoc (Biorad). Proteins were transferred electrophoretically to 0.45 µm of nitrocellulose membranes for 7 min at 2.5 Amp in Transfert buffer with Trans-Blot Turbo (biorad). Membranes were blocked 1h in odyssey buffer (eurobio) and incubated overnight in a mixture of antibodies diluted in odyssey buffer. After three washes with PBS-0.05% Tween 20, the membranes were incubated for 1 h with second antibody (LYCOR) diluted in odyssey buffer. This secondary antibody was detected by fluorescence with odyssey. Proteins were detected using specific antibodies (abcam) and total protein was used as the loading control. Primary antibodies (abcam®) against HADHA, VLCAD, mt-ETFA, mt-ETFB, NDUFS2 and NDUFAB1.
# [1] = test system: respiratory chain complex I; assay: Complex I enzymatic activity assay (spectrophotometric); type: biochemical, human; conditions: A549 cells: 500 µM Trimetazidine 48H; cell homogenate: 100 µM palmitoyl-Coa, 10 min incubation
# Description: Enzymatic activities were measured spectrophotometrically, in homogenate of cells using the following reaction media: Complex I - 50mM potassium phosphate buffer, 100µM Decylubiquinone. The reaction was started by the addition of 100µM NADH and carried out at 37°C for 15 min in 340nm. After the stabilization of the signal was added 12,5µM Rotenone. Complex II - 25mM potassium phosphate buffer, 1mM KCN, 100µM ATP, 50µM DCPIP, 20mM succinate. The reaction was started by the addition of 100µM decylubiquinone and carried out at 37°C for 15 min in 660nm. Complex III - 100mM potassium phosphate buffer, 50µM cytochrome c, 250µM EDTA. The reaction was started by the addition of 100µM decylubiquinol and carried out at 37°C for 15 min in 550nm. After the stabilization of the signal was added 12,5µg/ml antimycin A. Complex IV - 100uM reduced cytochrome C in 50mM potassium phosphate buffer. The reaction was started by the addition of homogenate of cells and carried out at 37°C for 15 min in 550nm.
# H460 cells [2] = assay: Sensitivity to chemotherapeutic drugs; type: cell-based, human; conditions: H460 cells compared with A549 cells; data not shown
# H460 (OX-) cells = assay: Sulphorodamine B viability assay; type: cell-based, human; conditions: H460 (OX-) cells in vitro
# Description: A549_LUC and H460_LUC, human lung cancer cells, were stably transfected with luciferase (pRRLsin-MND-Luc-WPRE). The cells were maintained in DMEM medium (Gibco) 11885-084 and 11965-092 respectively, supplemented with 10% fetal bovine serum (FBS), pH 7.4 at 37°C in a humidified incubation chamber with 5% CO2. Cells were sub-cultured every 2 days and used on experiments when they reached 85% confluency. Also, they were tested as luciferase positive using direct application of 2 mL of a 150 mg/ml solution of luciferine (Firefly Luciferin, Caliper Lifescience Corp, USA), followed by immediate bioluminescent imaging using the photonIMAGER™ optima system.
# (§1) Briefly, cells were seeded in 96-well plates and medium was changed after 24 h, then Test Reagent was added on top of the cell wells and incubated for up to 72h. The viability assay was performed using Sulforhodamine B colorimetric assay for viability assay following the protocol described by Vanicha Vichai & Kanyawim Kirtikara.
# [3] = test system: A549 cells expressing luciferase; assay: Orthotopic mouse model of human lung OX+ adenocarcinoma, bioluminescence imaging; type: in vivo, mice; conditions: luminescence imaging at day 3 and day 18; Trimetazidine 20mg/kg/day
# Text: (§2) All procedures using animals were approved by the Animal Care and Use Ethics Committee of the University of Bordeaux. The NOD/LtSz-scid/IL-2Rychain^null (NSG) mice were produced and housed in the University Bordeaux Segalen animal facility, according to the rules and regulations governed and enforced by the Institutional Animal Care and Use Committee. The animal facility institutional agreement number is A33063916. Animals were included in protocols between 6 and 8 weeks old. Mice were monitored weekly for body weights and were also examined for aspect and behavior during the time-course of the experiments. No changes were noticed except otherwise indicated.
# (§3) The orthotopic mouse models of OX+ or OX- human LUAD were obtained by using luciferase expressing clones of A549 or H460 lung adenocarcinoma cell lines, respectively. Groups of 5 mice were anesthetized with isoflurane and 1 × 10^6 cells in a volume of 100µl were injected in the lung of 8-weeks NGS mice and imaged 20 min after injection. Bioluminescence imaging (BLI) was performed on a Bioimager following intraperitonal injection of 150 mg/kg of D-Luciferin (Interchim, Montluçon, France). After 10 min, mice were anesthetized by isoflurane and placed into a photon bioimager (BIOSPACE LAB, Paris, France) for about 20 min to acquire luminescence images. Signals were quantified with the M3Vision software (BIOSPACE LAB). […]
# A549 (OX+) cells [4] = assay: NAD/NADH determination; type: cell-based, human; conditions: 500µM for 48H
# Description: The NAD/NADH was measure using the NAD/NADH Colorimetric assay Kit (abcam), according to the manufacturer's instructions. At 25°C absorbance was measured at 450 nm and the value used to calculate the ratio. The assay was normalized to cell number.
# A549 (OX+) cells [5] = assay: Sulphorodamine B viability assay; type: cell-based, human; conditions: A549 (OX+) cells in vitro
# Description: A549_LUC and H460_LUC, human lung cancer cells, were stably transfected with luciferase (pRRLsin-MND-Luc-WPRE). […] Also, they were tested as luciferase positive using direct application of 2 mL of a 150 mg/ml solution of luciferine (Firefly Luciferin, Caliper Lifescience Corp, USA), followed by immediate bioluminescent imaging using the photonIMAGER™ optima system.
# as §1
# A549 cells [6] = assay: Mass spectrometry lipidomic analysis of cells; type: cell-based, human; conditions: inside A549 cells
# Description: (§4) Extracted samples were dissolved in 100 µL CHC13; 15 µL was injected for analysis. LC separation was achieved using a Bio-Bond 5U C4 column (Dikma). The LC solvents were as follows: buffer A, 95:5 H2O:methanol + 0.03% NH4OH; buffer B, 60:35:5 isopropanol:methanol:H2O + 0.03% NH4OH. A typical LC run consisted of the following for 70 min after injection: 0.1 mL/min 100% buffer A for 5 min, 0.4 mL/min linear gradient from 20% buffer B to 100% buffer B over 50 min, 0.5 mL/min 100% buffer B for 8 min and equilibration with 0.5 mL/min 100% buffer A for 7 min. FFA analysis was performed using a Thermo Scientific Q Exactive Plus fitted with a heated electrospray ionization source. The MS source parameters were 4 kV spray voltage, with a probe temperature of 437.5 °C and capillary temperature of 268.75 °C. Full-scan MS data was collected with a resolution of 70 k, AGC target 1 × 106, maximum (max) injection time of 100 ms and a scan range of 150-2,000 m/z. […] Extracted ion chromatograms for each FFA were generated using a m/z ± 0.01 mass window around the calculated exact mass (i.e., palmitic acid, calculated exact mass for M-H is 255.2330, and the extracted ion chromatogram was 255.22-255.24). Quantification of the FFAs was performed by measuring the area under the peak and dividing this number by the area under the peak for [^13C16]palmitate. […]
# H460 cells [7] = assay: Mass spectrometry lipidomic analysis of cells; type: cell-based, human; conditions: 48 hours
# Description: as §4
# A549 cells [8] = assay: ATP measurement (CellTiter-Glo); type: cell-based, human; conditions: 500µM for 48H
# Description: The ATP content was performed using the The CellTiter-Glo® Luminescent Cell Viability Assay (Promega) folowing manufacturer's instructions. Luminescence was read on a spectramax M4 Multi-Mode Microplate Reader (Molecular Devices) and values were calculated based on an ATP standard curve. The assay was normalized to cell number.
# A549 (OX+) cells [9] = assay: Oxygen consumption by high-resolution respirometry; type: cell-based, human; conditions: 500µM for 48H
# Description: O2 consumption rates were measured polarographically using high-resolution respirometry (Oroboros Oxygraph-O2K). After the treatment period, medium was removed and cells were either suspended in DMEM in the presence of glucose or not for measurements of O2 consumption of intact cells, or in the respiration medium pH 7.2 (mannitol 0.25 M, MgCl2 10 mM, KH2PO4 10 mM, HEPES 10 mM, EDTA 0.08 mM, EGTA 1 mM and fatty acid free BSA 0.1%) for evaluation of respiratory complexes of permeabilized cells. Routine consumption, oligomycin-independent respiration (proton leak), FCCP-stimulated respiration (ETS capacity - maximum respiration) and ROX (oxygen consumption in presence of rotenone and antimicyn A) were measured in intact […] cells. All the values were corrected by ROX. The respiratory activity of ETF of digitonin 0.0015%-permeabilized lung cancer cells were performed following the addition of palmitoyl-carnitine 25 µM (ETF-linked substrate), rotenone 0.5 µM, ADP 100 µM. DatLab software (Oroboros Instruments, Innsbruck, Austria) was used for data acquisition and analysis.
# Complex I subunits = assay: Quantitative proteome analysis of complex I subunits; type: cell-based, human; conditions: A549 cells
# [10] = Mass spectrometry lipidomic analysis of blood; type: in vivo, mice; conditions: 20mg/kg/day, day 7
# Description: as §4
# [11] = test system: human lung OX- H460 adenocarcinoma; assay: Orthotopic mouse model of human lung OX- adenocarcinoma; type: in vivo, mice; conditions: 20 mg/kg daily
# Text: as §2, §3
# A549 cells [12] = assay: Incorporation of [13C]-palmitate in Krebs cycle by mass spectrometry; type: cell-based, human; conditions: after 2 hours
# Description: The incorporation of palmitate in Krebs cycle was followed at the level of citrate using mass spectrometry. A549 cells grown in low glucose DMEM were washed twice with PBS and resuspended in PBS containing 2 mm [U-13C]palmitate with (10 mm) glucose.
# The cells were incubated for 2 h at 27 °C before fast filtration preparation of the samples for mass spectrometry analysis. Metabolites were analyzed by ionic-exchange chromatography coupled with tandem mass spectrometry (IC-MS/MS) using the method described by Bolten et al. Retention time on the column and multiple reaction monitoring (MRM) transition of each analyzed metabolite are known by the one skilled in the art.
# The ^13C mass isotopomer distribution of intracellular metabolites was determined from relevant isotopic clusters in the IC-MS/MS analysis, according to Kiefer et al. ^13C mass isotopomer distribution measurements were performed using a triple quadrupole mass spectrometer (4000Qtrap, Applied Biosystems). To obtain ^13C-labeling patterns (^13C isotopologues), isotopic clusters were corrected for the natural abundance of isotopes other than 13C, using the in-house software IsoCor (available at MetaSys).
molecule,measurement,setting,value
"COC(=O)c1cccc(NS(=O)(=O)c2ccc(C)cc2)c1 [MSAB, methyl 3-{[(4-methylphenyl)sulfonyl]amino}benzoate]",expression of HADHA,HADHA,opposite effect
CCCCCCCCCCCCCCCC(=O)SCCNC(=O)CCNC(=O)[C@H](O)C(C)(C)COP(=O)(O)OP(=O)(O)OC[C@H]1O[C@@H](n2cnc3c(N)ncnc32)[C@H](O)[C@@H]1OP(=O)(O)O [palmitoyl-CoA],respiratory chain complex I activity,[1],inhibition
O=c1[nH]cc(F)c(=O)[nH]1 [5-fluorouracile],sensitivity to the chemotherapeutic drugs,H460 cells [2],higher sensitivity
"COc1ccc(CN2CCNCC2)c(OC)c1OC [Trimetazidine, 1-(2,3,4-trimethoxybenzyl)piperazine]",cell viability,H460 (OX-) cells,no effect
same,tumor size,[3],Reduction of tumor size
same,NADH redox state (NAD+/NADH ratio),A549 (OX+) cells [4],altered
same,cell viability,A549 (OX+) cells [5],Dose-dependent reduction
same,accumulation of unprocessed fatty-acids,A549 cells [6],accumulation
same,accumulation of unprocessed fatty-acids,H460 cells [7],not
same,respiratory chain complex I activity,[1],inhibition
same,cellular ATP content,A549 cells [8],altered
same,mitochondrial respiration,A549 (OX+) cells [9],inhibited
same,content of 15 Complex I subunits,Complex I subunits,significant reduction
same,Complex I intermediate-associated protein 30 (CIA30; NDUFAF1),Complex I subunits; after 4 hours of treatment,completely degraded
same,Fatty-acids accumulation in the blood,[10]; OX+ mice,accumulation
same,"level of hydroxylated fatty acids (C18-OH, C18-1OH, C18-2OH, C16OH, C14OH)",[10]; blood of OX+ mice,increased
same,effect on OX- tumors,[11],no effect
same,incorporation of [^13C]-palmitate in the Krebs cycle ([^13C]citrate isotopomers),A549 cells [12],significant reduction
lithium-chloride,expression of HADHA,HADHA,stimulated
COc1cc([C@@H]2c3cc4c(cc3[C@@H](O[C@@H]3O[C@@H]5CO[C@@H](C)O[C@H]5[C@H](O)[C@H]3O)[C@H]3COC(=O)[C@H]23)OCO4)cc(OC)c1O [etoposide],sensitivity to the chemotherapeutic drugs,H460 cells [2],higher sensitivity
"COc1ccccc1OCC(O)CN1CCN(CC(=O)Nc2c(C)cccc2C)CC1 (racemic) [Ranolazine, (±)-N-(2,6-dimethylphenyl)-4-[2-hydroxy-3-(2-methoxyphenoxy)-propyl]-1-piperazineacetamide]",cell viability,A549 (OX+) cells [5],dose-dependent loss
COc1cccc2c1C(=O)c1c(O)c3c(c(O)c1C2=O)C[C@@](O)(C(=O)CO)C[C@@H]3O[C@H]1C[C@H](N)[C@H](O)[C@H](C)O1 [doxorubicin],sensitivity to the chemotherapeutic drugs,H460 cells [2],higher sensitivity
